Experimental data: the supplement of paper PMC10307832

How the values were obtained:
Assay in all cases: relative viability (nuclei count vs DMSO), 5 days (fraction); higher = more cells survive
Trametinib + Navitoclax = compound: CC(=O)Nc1cccc(-n2c(=O)n(C3CC3)c(=O)c3c(Nc4ccc(I)cc4F)n(C)c(=O)c(C)c32)c1 [Trametinib] + CC1(C)CCC(c2ccc(Cl)cc2)=C(CN2CCN(c3ccc(C(=O)NS(=O)(=O)c4ccc(N[C@H](CCN5CCOCC5)CSc5ccccc5)c(S(=O)(=O)C(F)(F)F)c4)cc3)CC2)C1 [Navitoclax] (partner 0.5 µM)
How it was run: (§1)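 Lung cancer cell lines in 1536-well plates were dosed by pin tool the day after seeding, either with one drug alone or with a fixed anchor-drug dose plus five library-drug doses (not always all listed) in √10 steps. After 5 days, cells were fixed and their nuclei stained in one step (final 0.05% Triton X-100, 1% formaldehyde, 1 ug/ml Hoechst), then counted on 4× images. Relative viability is the nuclei count in treated wells divided by that in vehicle wells. Values are medians of duplicate plates.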

Trametinib + Crizotinib = compound: CC(=O)Nc1cccc(-n2c(=O)n(C3CC3)c(=O)c3c(Nc4ccc(I)cc4F)n(C)c(=O)c(C)c32)c1 [Trametinib] + C[C@@H](Oc1cc(-c2cnn(C3CCNCC3)c2)cnc1N)c1c(Cl)ccc(F)c1Cl [Crizotinib] (partner 1 µM)
How it was run: as §1

Trametinib + Tozasertib = compound: CC(=O)Nc1cccc(-n2c(=O)n(C3CC3)c(=O)c3c(Nc4ccc(I)cc4F)n(C)c(=O)c(C)c32)c1 [Trametinib] + Cc1cc(Nc2cc(N3CCN(C)CC3)nc(Sc3ccc(NC(=O)C4CC4)cc3)n2)n[nH]1 [Tozasertib] (partner 0.1 µM)
How it was run: as §1

[1] = compound: CN1C=C(C2=CC=CC=C21)/C=C\3/C4=C(C=CC=N4)NC3=O + Nc1nc2[nH]cc(CCc3ccc(C(=O)N[C@@H](CCC(=O)O)C(=O)O)cc3)c2c(=O)[nH]1 [Pemetrexed] (partner 0.2 µM)
How it was run: as §1

Cell Line	relative viability (Trametinib + Navitoclax; first compound 0.0025 µM)	relative viability (Trametinib + Navitoclax; first compound 0.007906 µM)	relative viability (Trametinib + Navitoclax; first compound 0.025 µM)	relative viability (Trametinib + Navitoclax; first compound 0.07906 µM)	relative viability (Trametinib + Navitoclax; first compound 0.25 µM)	relative viability (Trametinib + Crizotinib; first compound 0.0025 µM)	relative viability (Trametinib + Crizotinib; first compound 0.007906 µM)	relative viability (Trametinib + Crizotinib; first compound 0.025 µM)	relative viability (Trametinib + Crizotinib; first compound 0.07906 µM)	relative viability (Trametinib + Crizotinib; first compound 0.25 µM)	relative viability (Trametinib + Tozasertib; first compound 0.0025 µM)	relative viability (Trametinib + Tozasertib; first compound 0.007906 µM)	relative viability (Trametinib + Tozasertib; first compound 0.025 µM)	relative viability (Trametinib + Tozasertib; first compound 0.07906 µM)	relative viability (Trametinib + Tozasertib; first compound 0.25 µM)	relative viability ([1]; first compound 0.02 µM)	relative viability ([1]; first compound 0.06325 µM)	relative viability ([1]; first compound 0.6325 µM)	relative viability ([1]; first compound 2 µM)	relative viability ([1]; first compound 0.2 µM)
HCC-827	1.06	0.971	1.03	0.946	0.676	0.931	0.946	0.889	0.859	0.532	0.406	0.401	0.31	0.293	0.307	0.227	0.28	0.247	0.258	
NCI-H1755	0.958	0.952	0.901	0.918	0.838	0.807	0.789	0.706	0.772	0.691	0.544	0.537	0.604	0.63	0.545	0.351	0.365	0.423	0.373	0.427
NCI-H1944	0.916	0.71	0.544	0.664	0.49	1	0.763	0.762	0.629	0.326	0.262	0.21	0.185	0.185	0.177	0.549	0.558	0.617	0.652	
NCI-H23	0.624	0.58	0.347	0.344	0.247	0.389	0.428	0.34	0.387	0.263	0.339	0.211	0.283	0.248	0.213	0.678	0.598	0.788	0.654	0.576
HCC-366	0.977	0.926	0.7	0.531	0.275	0.446	0.425	0.34	0.246	0.0629	0.117	0.0857	0.0884	0.07	0.0695	0.148	0.142	0.155	0.133	0.196
ChaGo-K-1	1.07	0.803	1.08	0.508	0.556	1.13	1.07	1.1	1.01	0.761	0.232	0.223	0.214	0.201	0.191	0.252	0.255	0.269	0.245	0.241
LCLC-97TM1	0.427	0.451	0.216	0.207	0.122	0.482	0.573	0.271	0.281	0.147	0.202	0.29	0.225	0.143	0.19		0.177	0.21	0.186	0.18
EMC-BAC-2	1.07	0.956	1.06	0.891	0.817	0.755	0.782	0.765	0.732	0.482	0.369	0.354	0.41	0.457	0.328	0.407	0.438	0.465	0.421	0.442
